Publication PMC3316526, “Modulation of γ-Secretase Activity by Multiple Enzyme-Substrate Interactions: Implications in Pathogenesis of Alzheimer's Disease” (PLoS ONE, 2012)
Each block holds one molecule with its values, some of them ahead of it.

Experiments:
[1] = test system: γ-secretase carrying presenilin 1 FAD mutation ΔE9; test: Inhibition of total AICD production, CHAPSO enriched γ-secretase membranes, FAD mutant ΔE9; type: biochemical, human; details: for Hill's coef. / IC50: ΔE9 presenilin 1, best fit ± standard error, eqn. 3; for IC50: total AICD production, western blot; for decrease in inhibition potency relative to the WT: ΔE9 vs WT presenilin 1
Experimental: (§1) Figure 9 Inhibition of WT presenilin 1 and FAD mutants by DAPT and L-685,458. CHAPSO enriched γ-secretase membranes carrying WT presenilin 1 or FAD mutations ΔE9 and G384A have been prepared and analyzed in parallel with all conditions identical. The dose response curves for DAPT [71] and L-685,458 [15] were measured by following total AICD production using western-blots with αM2 antiflag antibody as shown in Fig. 3. The results were analyzed using nonlinear regression and the equation 3 (methods).
(§2) MEF cells, or MEF double knockout for endogenous presenilin transduced with human WT, dE9 and G384A presenilin 1 [85], were grown to confluence, scraped, and collected in pellets by centrifugation at 1000×g for 5 min. The cell pellets were re-suspended in 20 mM Pipes pH = 7.0, 140 mM KCl, 0.25 M sucrose, 5 mM EGTA, plus 1X Roche protease inhibitors cocktail, so that the total protein concentration was 10 mg/ml. Re-suspended cells were subjected to more than 20 passages in 8.010 mm cell-cracker. The resulting cell extract was subjected to 10 min centrifugation on 2000×g to remove large debris, and the fragmented membranes were collected as pellets after centrifugation for 1 hour at 100 000×g, and stored at −80°C.
(§3) γ-Secretase assays using CHAPSO enriched membranes were performed essentially as earlier described, [37], [48], [89]. Briefly, microsomal fractions (protein concentration 10 mg/ml) from different MEF cells were solubilized in 1% CHAPSO buffer (50 mM Pipes, pH 7.0, 0.25 M sucrose, 1 mM EGTA, 1×Complete protease inhibitor mixture (Roche)) and incubated on ice for 1 h. CHAPSO was always prepared as 1% w/v fresh from a powder stock that was less than 6 months old and kept at 4°C (freshness is crucial for high activity). Next, the membrane-solubilized protein fractions were obtained as supernatant by ultracentrifugation for 1 hour at 100,000×g. The prepared CHAPSO enriched membranes were diluted two fold with 50 mM Pipes pH = 7.0, 0.25 M sucrose, 1 mM EGTA, 0.1% phosphatidylcholine, and 0.0125% phosphatidylethanolamine, plus 1×Complete protease inhibitor mixture (Roche), and left on 37°C for two to three hours. This incubation can increase the measured activity by up to 70% since it can accommodate slow reassembly of γ-secretase components that is induced by the transition from 1% CHAPSO to 0.25% CHAPSO [90]. The reactions were started by adding C99 substrate in desired concentration, the added volume was adjusted so that: i) the final CHAPSO concentration was 0.25%; ii) and final concentration of membrane proteins was 0.25 mg/ml. Fresh C99 substrate that is used immediately after purification gives the best opportunity to observe described enzymatic features and the highest activity. The assay mix was prepared in low adhesion microcentrifuge tubes, the volume was usually 25 µL. To increase sensitivity in early data points detection, and at low enzyme saturation, the assay volume was increased up to 400 µL, and the resulting reaction products were concentrated by immunoprecipitation before the gels were loaded. The reaction mix was incubated at 37°C, the time was optimized for each experiment. The AICD production remains linear for 6 hours at saturating substrate. The reaction specificity was confirmed by running identical parallel reactions that have been saturated with inhibitors specific for γ-secretase; 10 µM LY-411,575 and 10 µM DAPT [3], [4].
(§4) AICD assays using western-blots with anti-flag αM2 monoclonal antibody, or 125-I labelled C99 autoradiography were performed as earlier described, [37]. To keep the C99 bands visible on gels in difference to the previous studies the reaction aliquots were not subjected to methanol /chloroform extraction. Briefly, the samples were separated on Nu-PAGE 12% Bis/Tris/MES/SDS-page gels (Invitrogen) at 150 V for 55 min. For 125-I-C99 assays the gels were dried and exposed for 1–2 hours to europium intensifying screens for autoradiography. […]

[2] = target: T1, γ-secretase carrying presenilin 1 FAD mutation G384A (Homo sapiens, UniProt P49768, G384A); test: Inhibition of total AICD production, CHAPSO enriched γ-secretase membranes, FAD mutant G384A; type: biochemical; details: for decrease in inhibition potency relative to the WT: G384A vs WT presenilin 1
T1 construct: expressed in transfected cells; host or cells: MEF double knockout for endogenous presenilin, transduced; CHAPSO-solubilised microsomal membranes
Experimental: as §1, §2
as §3, with “[4]. […]” for “[4].”

[3] = target: T2, γ-secretase carrying WT presenilin 1 (Homo sapiens, UniProt P49768); test: Inhibition of total AICD production, CHAPSO enriched γ-secretase membranes, WT presenilin 1; type: biochemical; details: best fit ± standard error, eqn. 3; for IC50: total AICD production, western blot
T2 construct: expressed in transfected cells; host or cells: MEF double knockout for endogenous presenilin, transduced; CHAPSO-solubilised microsomal membranes
Experimental: as §1, §2
as §3, with “The assay mix was prepared in low adhesion microcentrifuge tubes, the volume was usually 25 µL. To increase sensitivity in early data points detection, and at low enzyme saturation, the assay volume was increased up to 400 µL, and the resulting reaction products were concentrated by immunoprecipitation before the gels were loaded. The reaction mix was incubated at 37°C, the time was optimized for each experiment. The AICD production remains linear for 6 hours at saturating substrate. The reaction specificity was confirmed by running identical parallel reactions that have been saturated with inhibitors specific for γ-secretase; 10 µM LY-411,575 and 10 µM DAPT [3], [4].” left out

γ-secretase [4] = details: quoted without reference; read-out: IC50 in cell-based assays; cited from earlier work
γ-secretase [5] = test: Titration of γ-secretase activity in CHAPSO enriched membranes with LY-411,575; type: biochemical; details: total protein 0.25 mg/ml and 0.09 mg/ml
Experimental: γ-Secretase assays using CHAPSO enriched membranes were performed essentially as earlier described, [37], [48], [89]. Briefly, microsomal fractions (protein concentration 10 mg/ml) from different MEF cells were solubilized in 1% CHAPSO buffer (50 mM Pipes, pH 7.0, 0.25 M sucrose, 1 mM EGTA, 1×Complete protease inhibitor mixture (Roche)) and incubated on ice for 1 h. CHAPSO was always prepared as 1% w/v fresh from a powder stock that was less than 6 months old and kept at 4°C (freshness is crucial for high activity). Next, the membrane-solubilized protein fractions were obtained as supernatant by ultracentrifugation for 1 hour at 100,000×g. The prepared CHAPSO enriched membranes were diluted two fold with 50 mM Pipes pH = 7.0, 0.25 M sucrose, 1 mM EGTA, 0.1% phosphatidylcholine, and 0.0125% phosphatidylethanolamine, plus 1×Complete protease inhibitor mixture (Roche), and left on 37°C for two to three hours. This incubation can increase the measured activity by up to 70% since it can accommodate slow reassembly of γ-secretase components that is induced by the transition from 1% CHAPSO to 0.25% CHAPSO [90]. The reactions were started by adding C99 substrate in desired concentration, the added volume was adjusted so that: i) the final CHAPSO concentration was 0.25%; ii) and final concentration of membrane proteins was 0.25 mg/ml. […]

γ-secretase [6] = test: γ-Secretase reaction premixed with synthetic Aβ peptides (AICD production, urea gels of Aβ products); type: biochemical; details: for effect on the rate of AICD production: extremely high concentrations of synthetic peptide, half-saturating C99 (0.45 µM); for effect on relative difference between Aβ 1–40, Aβ 1–42 and the longer Aβ products: reaction premixed with 10 nM synthetic peptide, urea gels, [C99] = 0.45 µM, 4 hours
Experimental: Figure 7 γ-Secretase is not affected by Aβ peptides present in free solution. (A) The lanes labeled as “free reaction” represent Aβ products after 4 hours of routine γ-secretase reaction at half saturating C99 substrate ([C99] = 0.45 µM). The lanes labeled as “+10 nM Aβ 1–42” and “+10 nM Aβ 1–40” represent “free reaction” premixed with synthetic Aβ 1–42 or Aβ 1–40 in a concentration equivalent that corresponds to 4 hours of free reaction. The lanes labeled “+21F12” and “+2G6” represent “free reaction” that was premixed with antibodies specific for Aβ42 or Aβ40 respectively. Both 2G6 and 21F12 antibodies bind the matching Aβ peptides very efficiently as indicated by a complete removal of the corresponding Aβ bands in the reactions with protein G beads (samples labeled as “21F12 and prot. G” and “2G6 and prot. G”). The lane “Aβ std 1-x” represents synthetic peptides as mobility standards. (B) AICD production was measured at half-saturating C99 substrate (0.45 µM) in assays that were premixed with increasing concentrations of synthetic Aβ 1–38, Aβ 1–40, Aβ 1–42, or Aβ 1–44.
as §3, §4

γ-secretase [7] = test: Michaelis-Menten profiles for AICD, Aβ 1–40 and Aβ 1–42 in presence of DAPT; type: biochemical; details: enzyme approaching saturation with C99 substrate; DAPT 70-200 nM
Experimental: Figure 3 Michaelis-Menten profiles for AICD, Aβ 1–40 and Aβ 1–42 in presence of DAPT. CHAPSO enriched γ-secretase membranes were used to measure Michaelis-Menten profiles for total AICD production in presence of 0 nM (•), 70 nM (+) and 150 nM (O) of DAPT. Michaelis-Menten profiles for Aβ 1–40 and Aβ 1–42 production were measured in presence of 0 nM (•), 100 nM (+) and 200 nM (O) of DAPT. All profiles have been analyzed using nonlinear regression and the eqn. 4 (methods). The gel strips show different concentrations of the C99 substrate and the corresponding AICD products. […] AICD was measured using antiflag M2 antibodies (as shown in the gel strip). Aβ 1–40, and Aβ 1–42 were measured using AlphaScreen® as described in methods section.
γ-Secretase assays using CHAPSO enriched membranes were performed essentially as earlier described, [37], [48], [89]. […] This incubation can increase the measured activity by up to 70% since it can accommodate slow reassembly of γ-secretase components that is induced by the transition from 1% CHAPSO to 0.25% CHAPSO [90]. […]
AICD assays using western-blots with anti-flag αM2 monoclonal antibody, or 125-I labelled C99 autoradiography were performed as earlier described, [37]. […] Following the washes with TBS +0.1% Tween 20, the membranes were subjected to 25 nM GAMIR (MolecularProbes), washed, and read using fluorescence at […]. […]

patients = test system: patients; set-up: method as in PMID 21222550; details: Phase III clinical trials; cited from earlier work
APP C99-3×FLAG (human) = test: AlphaScreen or HTRF; increasing fresh C99 incubated 3 h with 10 nM 3D6 antibody coupled to both donor and acceptor beads; signal only if C99 dimerization/oligomerization brings two epitopes together; apparent Kd from a quadratic equation specific for dimerization (dimer to monomers)
[8] = target: γ-secretase (CHAPSO enriched γ-secretase membranes) (not stated (endogenous mouse in MEF, or human presenilin 1 transduced) | mouse (endogenous in MEF)) (UniProt P49768)
[9] = target: γ-secretase (CHAPSO enriched γ-secretase membranes) (not stated (endogenous mouse in MEF, or human presenilin 1 transduced) | mouse (endogenous in MEF)) (UniProt P49768); remark: listed apart in the source
[10] = G384A presenilin 1, best fit ± standard error, eqn. 3

Hill's coef. [1]: 0.98± 0.08
IC50 [1]: 707 ± 80 nM
decrease in inhibition potency relative to the WT [1]: 10–20 fold
Hill's coef. [2, 10]: 1±0.13
IC50 ([2]; G384A presenilin 1, total AICD production, western blot, best fit ± standard error, eqn. 3): 398 ± 51 nM
decrease in inhibition potency relative to the WT [2]: 10–20 fold
Hill's coef. [3]: 1.3±0.1
IC50 [3]: 32 ± 4 nM
Molecule: CC(C)C[C@H](NC(=O)[C@H](Cc1ccccc1)C[C@@H](O)[C@H](Cc1ccccc1)NC(=O)OC(C)(C)C)C(=O)N[C@@H](Cc1ccccc1)C(N)=O [L-685,458, {1S-benzyl-4R-[1S-carbamoyl-2-phenylethylcarbamoyl-1S-3-methylbutylcarbamoyl]-2R-hydroxy-5-phenylpentyl} carbamic acid tert-butyl ester]

Molecule: C[C@H](NC(=O)[C@@H](O)c1cc(F)cc(F)c1)C(=O)N[C@@H]1C(=O)N(C)c2ccccc2-c2ccccc21 [LY-411,575]
IC50 (γ-secretase [4]): ~0.1 nM
concentration that completely abolishes γ-secretase activity (γ-secretase [5]): 1 to 2 nM

effect on the rate of AICD production (γ-secretase [6]): do not affect
Molecule: Aβ 1–44: synthetic Aβ 1-x standard prepared by solid phase synthesis

Molecule: C[C@H](NC(=O)Cc1cc(F)cc(F)c1)C(=O)N[C@H](C(=O)OC(C)(C)C)c1ccccc1 [DAPT, N-[N-(3,5-difluorophenacetyl)-L-alanyl]-S-phenylglycine t-butyl ester]
Hill's coef. [1]: 1.21±0.07
IC50 [1]: 734 ± 254 nM
decrease in inhibition potency relative to the WT [1]: approximately twofold
mode of inhibition versus C99 substrate (γ-secretase [7]): noncompetitive inhibitor
Hill's coef. [2, 10]: 0.54±0.25
decrease in inhibition potency relative to the WT [2]: about 1000 fold
Hill's coef. [3]: 0.7±0.2
IC50 [3]: 390 ± 179 nM

effect on the rate of AICD production (γ-secretase [6]): do not affect
effect on relative difference between Aβ 1–40, Aβ 1–42 and the longer Aβ products (γ-secretase [6]): does not affect
Molecule: Aβ 1–40: synthetic Aβ 1-x standard prepared by solid phase synthesis

Molecule: CC(C)[C@H](O)C(=O)N[C@@H](C)C(=O)N[C@@H]1C(=O)N(C)CCc2ccccc21 [semagacestat]
effect on cognitive decline in patients (patients): can accelerate the cognitive decline

Kd (APP C99-3×FLAG (human)): 33 nM
Y-axis intercept of the pre-steady-state burst in AICD production (3.0 µM C99, CHAPSO enriched γ-secretase membranes 0.25 mg/ml) [8]: 8.2 nM
Molecule: APP C99-3×FLAG (domain or fragment)

effect on the rate of AICD production (γ-secretase [6]): do not affect
Molecule: Aβ 1–38: synthetic Aβ 1-x standard prepared by solid phase synthesis

effect on the rate of AICD production (γ-secretase [6]): do not affect
effect on relative difference between Aβ 1–40, Aβ 1–42 and the longer Aβ products (γ-secretase [6]): does not affect
Molecule: Aβ 1–42: synthetic Aβ 1-x standard prepared by solid phase synthesis

AICD production from 125-I labeled C99 at half-saturating C99 (0.44-0.45 µM) with increasing NotchΔE substrate: activation, then inhibition only at higher NotchΔE concentrations [9]: 85%
Molecule: NotchΔE substrate (NotchΔE-3xFLAG) (domain or fragment)
